This test relates to CEM cells HIV-1 protection, formazan growth assay. Briefly: NCI AIDS Antiviral Assay. The conditions noted are these: for IC50: measured here: growth of uninfected CEM cells. An outline of the steps:
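Screen of anti-HIV-1 activity in human CEM cells using a formazan-based growth measurement at five drug concentrations. Hits with 50% or greater protection were repeated, and confirmation required reproducible complete protection.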

The source made the active and inactive calls.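 How the source made its calls: active means compounds giving half or more protection of infected cells from virus-caused growth loss, again on retest; inactive means the rest.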 Some results are limits rather than exact numbers.

With `Cc1ccc(-c2c(C#N)c(O)n(NS(=O)(=O)c3ccccc3)c(=O)c2C#N)cc1`, the EC50 (in general, the concentration giving half of the maximal effect) was over 200 µM and the IC50 (usually the point on the concentration scale where inhibition reaches its midpoint) was over 200 µM.

`COC1=CC(=O)C(O)=C(CC2(C)C(C)CCC3(C)C2CCCC3(C)C)C1=O` (centres undefined): the EC50 was over 95.5 µM and the IC50 worked out at 6.46 µM.

Take `COc1cc2ccc3c(c2cc1OC)CCc1cnoc1-3`: the EC50 was over 47.9 µM and the IC50 is over 47.9 µM.

Take `CCOC(=O)Cc1csc(N/N=c2/sc(C=Nc3ccccc3)c(O)n2CC)n1`: the EC50 was over 200 µM and the IC50 is over 200 µM.

For the compound `Nc1cc(C(=O)NC2C3CC4CC(C3)CC2C4)[nH]c(=S)n1` (centres undefined), the EC50 is over 813 µM and the IC50 was over 813 µM.

For `CN1N=C(c2ccncc2)OC1c1ccc(Cl)c(Cl)c1` (centres undefined), the EC50 is over 200 µM and the IC50 stood at 85.1 µM.

With `O=C1Nc2ccccc2C1S(=O)(=O)c1ccccc1` (centres undefined), the EC50 was over 138 µM and the IC50 turned out to be 110 µM.

Turning to `COC(=O)c1cccc(C)c1C1CN=NC12Cc1cc(C)cc(C)c1C2=O` (centres undefined), the EC50 was over 200 µM and the IC50 amounted to 12.3 µM.

For the compound `COc1ccc(-c2cc(=O)c3ccc(O)cc3o2)cc1`, the EC50 is over 83.2 µM and the IC50 was over 83.2 µM.

`N#Cc1c(C#N)c(-c2ccccc2)n(/N=C\c2ccccc2)c1N`: the EC50 was over 200 µM and the IC50 was found to be 14.5 µM.

As for `N#CSCc1nc2ccc(Cl)cc2c(-c2ccccc2)[n+]1[O-]`, the EC50 is over 55 µM and the IC50 is 8.91 µM.

Regarding `CC1(C)CC(=O)c2c(nc(SSc3nc4c(c(-c5ccccc5)c3C#N)C(=O)CC(C)(C)C4)c(C#N)c2-c2ccccc2)C1`, the EC50 is over 200 µM and the IC50 was determined as 89.1 µM.

Take `C=CCOC1OC(CS(=O)(=O)O)C(O)C(O)C1O` (centres undefined): the outcome was inactive.

Turning to `O=C(Nc1sccc1S(=O)(=O)c1ccc(Cl)cc1)C(F)(F)F`, the EC50 is over 200 µM and the 50% inhibitory concentration (IC50) stood at 9.55 µM.

Turning to `CCOC(=O)n1[nH][nH]c2c(c(=O)n(C)c(=O)n2C)n1C(=O)OCC`, the EC50 is over 200 µM and the IC50 was over 200 µM.

`CC1(C)CC(=O)C2=C(C1)Nc1ccccc1NC2c1ccccc1` (centres undefined): the EC50 was over 200 µM and the IC50 was over 200 µM.

On to `COc1ccc(-c2oc3cc(-c4cc5oc(-c6ccc(OC)cc6)c(-c6ccc(OC)cc6)c5cc4OC)c(OC)cc3c2-c2ccc(OC)cc2)cc1`, for which the EC50 was over 200 µM and the IC50 is over 200 µM.

Regarding `COC(=O)C1Cc2c([nH]c3ccccc23)-c2[nH]c3ccccc3c2CC(NC(C)=O)C(=O)NCC(=O)NCC(=O)N1` (centres undefined), the EC50 was over 200 µM and the IC50 was over 200 µM.

On to `CN(CCCn1ccnc1[N+](=O)[O-])CCCn1ccnc1[N+](=O)[O-]`, for which the EC50 is over 200 µM and the IC50 turned out to be 83.2 µM.

`CCCCN=C1OCc2[nH][nH]c(=O)c21`: the EC50 was over 1290 µM and the IC50 is over 1290 µM.

Take `C=CC[C@H](C[C@H](C[C@H](C[C@H](C[C@H](C[C@H](C[C@H](C[C@H](C[C@H](C[C@H](CCCCC)OC)OC)OC)OC)OC)OC)OC)OC)OC)OC`: the EC50 is over 200 µM and the IC50 came to 115 µM.

On to `Cc1ccc(S(=O)(=O)N/N=C2\CC3C4C=CC3C2C4)cc1` (centres undefined), for which the EC50 was over 200 µM and the IC50 was over 200 µM.

Take `O=C(Nc1nc(=S)c2c(ncn2CCOC(=O)c2ccccc2)[nH]1)c1ccccc1`: the EC50 was over 61.7 µM and the IC50 was over 61.7 µM.

Take `COc1ccc2c(c1)-c1c(c3cc(OC)ccc3n1CCN1CCOCC1)CC2`: the outcome was inactive.

As for `N/C(=N\N=C/c1ccc(OCc2ccccc2)cc1)NO`, the outcome was inactive.

Turning to `CCC1=CCC(P(=O)(c2ccccc2)c2ccccc2)CC1C` (centres undefined), the EC50 is over 11.5 µM and the IC50 is over 11.5 µM.

Turning to `NS(=O)(=O)C1CCCCC1C(=O)NNC(=O)C(=O)Nc1nc(=S)[nH][nH]1` (centres undefined), the EC50 is over 646 µM and the IC50 is over 646 µM.

Take `CSc1c(C(=O)Nc2ccc(C)cc2)c(N)n(N)c(=O)c1C#N`: the EC50 is 100 µM and the IC50 is 151 µM.

On to `CCN1CC(C)Cn2c(=S)[nH]c3cc(Br)cc1c32` (centres undefined), for which the EC50 was 5.01 µM and the IC50 was 138 µM.

For `CC[N+](C)(C)C1=C([O-])C(F)(F)C1=O`, the EC50 is over 200 µM and the half-maximal inhibitory concentration (IC50) is over 200 µM.

With `CC12C=C3CC(OC(=O)c4ccccc4)CCC3(O1)c1ccccc12` (centres undefined), the EC50 was over 57.5 µM and the IC50 amounted to 32.4 µM.

In the case of `CC1C(=O)CC[C@@]2(C)C(=O)CCCC12O` (some centres undefined), the result was inactive.

Turning to `C[N+]1=C(c2cccnc2/C=N/O)OCC1(C)C`, the EC50 is over 692 µM and the IC50 worked out at 417 µM.

Regarding `COP(=O)(N/N=C/C(=O)O)OC`, the EC50 is over 1260 µM and the IC50 was over 1260 µM.

With `C1CSCCSCCS1`, the EC50 is over 39.8 µM and the IC50 is over 39.8 µM.

Consider `CCOC(=O)c1ccc2c(=O)[nH]nc(CO)c2c1`, for which the EC50 was over 200 µM and the IC50 came out at 117 µM.

Regarding `O=C(O)CCCCCCCCCCC(=O)O`, the EC50 is over 148 µM and the IC50 was over 148 µM.

With `O=C(NNC1=NCCCN1)Nc1ccccc1`, the EC50 was over 200 µM and the IC50 was over 200 µM.

Consider `C=CCOC(=O)N(C)CC(OC(=O)C(C)(C)C)C1(c2ccc3c(c2)OCO3)C=CC(=O)C=C1` (centres undefined), for which the result was inactive.

Take `O=C(CCc1cc(O)ccc1O)OCCc1ccccc1`: the EC50 is over 20 µM and the 50% inhibitory concentration (IC50) came out at 10.2 µM.

For `N#C/C(=C\c1c[nH]c2ccccc12)C(=O)c1ccc(O)c(O)c1`, the EC50 was over 85.1 µM and the IC50 amounted to 46.8 µM.

In the case of `COC(=O)CC1CN(C(=O)OCc2ccccc2)C(C)(C)O1` (centres undefined), the EC50 was over 200 µM and the IC50 is over 200 µM.

As to `O=C1OC(/C=C/c2ccccc2)Sc2ccccc21` (centres undefined), the outcome was inactive.

In the case of `CCNc1ncnc2c1ncn2C1OC(CO)CC1F` (centres undefined), the EC50 is over 224 µM and the IC50 is over 224 µM.

`CCOC(=O)NP(=O)(NNc1ccccc1)NNc1ccccc1`: the result was inactive.

For the compound `CC(NC(=O)/C(=C/c1ccccc1O)NC(=O)c1ccccc1)C(=O)O` (centres undefined), the EC50 was over 200 µM and the IC50 is over 200 µM.

As to `CC1(C)C(O)c2ccccc2OC1N1CCN(C2Oc3ccccc3C(O)C2(C)C)CC1` (centres undefined), the EC50 was over 200 µM and the IC50 is over 200 µM.

On to `COC(=O)C(Cn1cnc2c(N)ncnc21)P(=O)(OC)OC` (centres undefined), for which the EC50 is over 759 µM and the IC50 is 39.8 µM.

Take `O=c1c2ccccc2nc(-c2ccccc2)n1NC1OC(CO)C(O)C(O)C1O` (centres undefined): the result was inactive.

Consider `Cc1ccc(S(=O)(=O)NC(=O)Nc2sc(=S)c3c(c2C#N)CCCC3)cc1`, for which the EC50 is over 309 µM and the half-inhibitory concentration (IC50) is 58.9 µM.

On to `O=C(Cc1ccccc1)NN1C(=O)C(Cl)C1c1ccc(Cl)cc1` (centres undefined), for which the EC50 was over 102 µM and the IC50 was over 102 µM.

For the compound `C(=NCCN=Cc1cccc2ccccc12)c1cccc2ccccc12`, the outcome was inactive.

For `CCCCCCCC(=O)OC[C@H](C[As](=O)(O)O)OC(=O)CCCCCCC`, the EC50 is over 200 µM and the IC50 came to 7.76 µM.

Consider `Cn1c2ccccc2c2ccc3c(c21)C(=O)c1ccc2c4ccccc4n(C)c2c1C3=O`, for which the EC50 was over 200 µM and the IC50 is over 200 µM.

In the case of `N#CC1(C#N)C(c2ccccc2)C=CC(c2ccc([N+](=O)[O-])cc2)C1(C#N)C#N` (centres undefined), the EC50 was over 200 µM and the IC50 was found to be 3.55 µM.

For `CCCCCCCCCCCCCCCCCC1=Nc2ccccc2NC(=O)C1`, the EC50 was over 100 µM and the IC50 was over 100 µM.

For `CNc1ccc(/C=C2\C=Cc3ccccc32)cc1Br`, the EC50 is over 12 µM and the IC50 was over 12 µM.

Consider `O=c1[nH]nc(Nc2ccc(Cl)cc2)c2nnn(C3CCCCC3)c12`, for which the EC50 is over 200 µM and the IC50 is over 200 µM.

`O=c1c2ccccc2c2nc3ccccc3nc2n1C1CCCCC1`: the outcome was inactive.

Regarding `O=C(c1ccccc1)c1c2ccccn2c2cccc[n+]12`, the EC50 is over 200 µM and the IC50 came to 53.7 µM.

For `FC(F)(F)c1ccc2c(c1)N(CCCNCCN1CCOCC1)c1ccccc1S2`, the EC50 is over 355 µM and the IC50 is 20.9 µM.

As for `O=c1oc2ccccc2c(O)c1C(c1cccs1)c1c(O)c2ccccc2oc1=O`, the EC50 is over 200 µM and the IC50 was found to be 30.2 µM.

Turning to `O=S(=O)(N1CCCCN(S(=O)(=O)C(F)(F)F)CCCN(S(=O)(=O)C(F)(F)F)CCCN(S(=O)(=O)C(F)(F)F)CCCCN(S(=O)(=O)C(F)(F)F)CCCN(S(=O)(=O)C(F)(F)F)CCC1)C(F)(F)F`, the EC50 was over 200 µM and the IC50 is over 200 µM.

Take `COc1cc(CC2c3cc(OC)c(OC)cc3CCN2C)c(Oc2cc3c(cc2OC)-c2c(OC)c(OC)c(OC)c4c2C(C3)N(C)CC4)cc1OC` (centres undefined): the outcome was inactive.

As for `O=C1/C(=C\c2cccc(Oc3ccccc3)c2)SC(c2ccccc2)N1c1cccc(Cl)c1` (centres undefined), the EC50 is over 200 µM and the IC50 was 16.2 µM.

On to `c1ccc(-c2sc(-c3ccccc3)c3c2C(c2ccccc2)c2c(-c4ccccc4)sc(-c4ccccc4)c2C3c2ccccc2)cc1` (centres undefined), for which the result was inactive.

Turning to `O=C(/C=C/c1ccc(Cl)cc1)Oc1ccc(/C=C2\CCCCC2=O)cc1`, the EC50 is over 200 µM and the IC50 came to 42.7 µM.

Turning to `Cc1cccc2c(N)c3cccc(C(=O)NCC[N+](C)(C)Cc4ccccc4[N+](=O)[O-])c3nc12`, the EC50 was over 100 µM and the IC50 is 3.55 µM.

Take `C/C=C/C=Nc1c(C#N)c2n(c1C(=O)Nc1ccccc1)CCC2`: the EC50 was over 100 µM and the IC50 is over 100 µM.

In the case of `Nc1nc(Cl)cc(OCC2(CO)CC2)n1`, the EC50 was over 200 µM and the IC50 is over 200 µM.

As to `CCOC(=O)/C(=C\c1cccc(OC)c1)C(C)=O`, the EC50 was over 525 µM and the IC50 was 95.5 µM.

As to `OCCN(/N=C\c1ccc2ccccc2c1)C1=NCCN1`, the EC50 was over 200 µM and the IC50 is 31.6 µM.

For `CCOP(=O)(OCC)/C(C#N)=C/c1cccc(Oc2ccccc2)c1`, the EC50 is over 52.5 µM and the IC50 worked out at 30.2 µM.

Source of the values: PubChem BioAssay AID179 (DTP/NCI, 2004).
